# Target: ROCK2 (Homo sapiens (Human), UniProt O75116)
# Assay: ROCK2 assay (peptide phosphorylation, LABCHIP 3000 Reader)
# Format: biochemical
# Settings: 5 μM ATP, 1.5 μM peptide substrate
# Outline: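 Human ROCK2 reaction in 20 mM HEPES pH 7.5, 20 mM MgCl2, 0.015% Brij-35, 4 mM DTT, with 5 μM ATP and 1.5 μM FITC-labelled peptide, DMSO <2%. Stopped with EDTA; phosphorylated and unphosphorylated peptide separated by microfluidic mobility shift. IC50 from dose-response curve fit.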
# Chain of ROCK2 (O75116 whole entry, species assumed): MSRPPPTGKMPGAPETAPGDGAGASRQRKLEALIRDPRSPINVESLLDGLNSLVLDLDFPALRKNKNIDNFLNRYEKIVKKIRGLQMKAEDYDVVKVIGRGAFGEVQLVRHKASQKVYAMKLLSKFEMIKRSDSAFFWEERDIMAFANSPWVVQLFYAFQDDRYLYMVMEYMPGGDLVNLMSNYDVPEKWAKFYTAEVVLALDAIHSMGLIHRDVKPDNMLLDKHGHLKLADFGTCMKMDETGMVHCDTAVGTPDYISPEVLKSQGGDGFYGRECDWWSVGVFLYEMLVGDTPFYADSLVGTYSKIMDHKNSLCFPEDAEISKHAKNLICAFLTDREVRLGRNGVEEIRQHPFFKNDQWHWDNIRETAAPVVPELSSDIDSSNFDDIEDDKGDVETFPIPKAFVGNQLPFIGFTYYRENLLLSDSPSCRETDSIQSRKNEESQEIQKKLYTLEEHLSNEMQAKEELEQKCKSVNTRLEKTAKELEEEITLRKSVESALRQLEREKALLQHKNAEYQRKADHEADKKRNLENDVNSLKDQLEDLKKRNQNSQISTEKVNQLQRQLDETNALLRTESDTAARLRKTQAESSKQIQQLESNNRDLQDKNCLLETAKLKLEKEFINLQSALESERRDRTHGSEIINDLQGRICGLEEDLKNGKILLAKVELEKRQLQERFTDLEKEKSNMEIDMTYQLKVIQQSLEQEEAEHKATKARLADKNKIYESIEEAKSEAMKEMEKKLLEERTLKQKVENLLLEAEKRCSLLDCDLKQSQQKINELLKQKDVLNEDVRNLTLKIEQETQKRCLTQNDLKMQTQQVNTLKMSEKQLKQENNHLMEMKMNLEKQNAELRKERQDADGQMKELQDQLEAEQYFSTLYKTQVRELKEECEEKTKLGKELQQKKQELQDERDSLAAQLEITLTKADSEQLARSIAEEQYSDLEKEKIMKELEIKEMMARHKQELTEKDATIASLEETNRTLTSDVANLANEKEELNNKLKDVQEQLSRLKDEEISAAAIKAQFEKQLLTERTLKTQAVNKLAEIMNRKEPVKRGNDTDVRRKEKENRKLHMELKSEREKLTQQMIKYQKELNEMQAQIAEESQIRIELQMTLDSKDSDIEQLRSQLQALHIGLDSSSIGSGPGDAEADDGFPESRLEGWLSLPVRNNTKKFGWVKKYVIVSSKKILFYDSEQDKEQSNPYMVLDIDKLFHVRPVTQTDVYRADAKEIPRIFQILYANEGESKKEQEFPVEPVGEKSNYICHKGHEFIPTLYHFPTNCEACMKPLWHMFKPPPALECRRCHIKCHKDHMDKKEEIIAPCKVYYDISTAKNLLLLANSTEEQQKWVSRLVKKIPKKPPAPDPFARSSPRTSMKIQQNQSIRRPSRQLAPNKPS
row,IC50 [nM],SMILES
1,5 to 50,"COc1cc(-n2nc(C)n(Cc3ccc(F)cc3)c2=O)ccc1-c1cn[nH]c1 [Example 101, 4-(4-fluorobenzyl)-1-(3-methoxy-4-(1H-pyrazol-4-yl)phenyl)-3-methyl-1H-1,2,4-triazol-5(4H)-one]"
2,50 to 250,"Cc1nn(-c2ccc(-c3cn[nH]c3)cc2)c(=O)n1Cc1cccc(OC(F)F)c1 [Example 102, 1-(4-(1H-pyrazol-4-yl)phenyl)-4-(3-(difluoromethoxy)benzyl)-3-methyl-1H-1,2,4-triazol-5(4H)-one]"
3,250 to 2000,"Cc1nn(-c2ccc(-c3cn[nH]c3)cc2)c(=O)n1Cc1cccc(C#N)c1 [Example 103, 3-((1-(4-(1H-pyrazol-4-yl)phenyl)-3-methyl-5-oxo-1H-1,2,4-triazol-4(5H)-yl)methyl)benzonitrile]"
4,50 to 250,"Cc1nn(-c2ccc(-c3cn[nH]c3)cc2)c(=O)n1Cc1c(F)cccc1F [Example 104, 1-(4-(1H-pyrazol-4-yl)phenyl)-4-(2,6-difluorobenzyl)-3-methyl-1H-1,2,4-triazol-5(4H)-one]"
5,5 to 50,"CCc1cc(-n2nc(C)n(Cc3cccc(OC)c3)c2=O)ccc1-c1cn[nH]c1 [Example 105, 1-(3-ethyl-4-(1H-pyrazol-4-yl)phenyl)-4-(3-methoxybenzyl)-3-methyl-1H-1,2,4-triazol-5(4H)-one]"
6,5 to 50,"CCc1cc(-n2nc(C)n(Cc3cccc(F)c3)c2=O)ccc1-c1cn[nH]c1 [Example 106, 1-(3-ethyl-4-(1H-pyrazol-4-yl)phenyl)-4-(3-fluorobenzyl)-3-methyl-1H-1,2,4-triazol-5(4H)-one]"
7,50 to 250,"CCc1cc(-n2nc(C)n(Cc3cc(F)ccc3F)c2=O)ccc1-c1cn[nH]c1 [Example 107, 4-(2,5-difluorobenzyl)-1-(3-ethyl-4-(1H-pyrazol-4-yl)phenyl)-3-methyl-1H-1,2,4-triazol-5(4H)-one]"
8,5 to 50,"CCc1cc(-n2nc(C)n(Cc3cc(F)cc(F)c3)c2=O)ccc1-c1cn[nH]c1 [Example 108, 4-(3,5-difluorobenzyl)-1-(3-ethyl-4-(1H-pyrazol-4-yl)phenyl)-3-methyl-1H-1,2,4-triazol-5(4H)-one]"
9,250 to 2000,"CCc1cc(-n2nc(C)n(C(C)c3ccccc3)c2=O)ccc1-c1cn[nH]c1 (stereo not shown) [Example 109, 1-(3-ethyl-4-(1H-pyrazol-4-yl)phenyl)-3-methyl-4-(1-phenylethyl)-1H-1,2,4-triazol-5(4H)-one]"
10,250 to 2000,"CCc1cc(-n2nc(C)n(CCc3ccccc3)c2=O)ccc1-c1cn[nH]c1 [Example 110, 1-(3-ethyl-4-(1H-pyrazol-4-yl)phenyl)-3-methyl-4-phenethyl-1H-1,2,4-triazol-5(4H)-one]"
11,250 to 2000,"CCc1cc(-n2nc(C)n(Cc3cccc(C#N)c3)c2=O)ccc1-c1cn[nH]c1 [Example 111, 3-((1-(3-ethyl-4-(1H-pyrazol-4-yl)phenyl)-3-methyl-5-oxo-1H-1,2,4-triazol-4(5H)-yl)methyl)benzonitrile]"
12,50 to 250,"CCc1cc(-n2nc(C)n(Cc3cccc(OC(F)F)c3)c2=O)ccc1-c1cn[nH]c1 [Example 112, 4-(3-(difluoromethoxy)benzyl)-1-(3-ethyl-4-(1H-pyrazol-4-yl)phenyl)-3-methyl-1H-1,2,4-triazol-5(4H)-one]"
13,50 to 250,"CCc1cc(-n2nc(C)n(Cc3ccccc3F)c2=O)ccc1-c1cn[nH]c1 [Example 113, 1-(3-ethyl-4-(1H-pyrazol-4-yl)phenyl)-4-(2-fluorobenzyl)-3-methyl-1H-1,2,4-triazol-5(4H)-one]"
14,250 to 2000,"CCc1cc(-n2nc(C)n(Cc3ccc(F)cc3)c2=O)ccc1-c1cn[nH]c1 [Example 114, 1-(3-ethyl-4-(1H-pyrazol-4-yl)phenyl)-4-(4-fluorobenzyl)-3-methyl-1H-1,2,4-triazol-5(4H)-one]"
15,5 to 50,"CCc1cc(-n2nc(C)n(Cc3cc(F)cc(OC)c3)c2=O)ccc1-c1cn[nH]c1 [Example 115, 1-(3-ethyl-4-(1H-pyrazol-4-yl)phenyl)-4-(3-fluoro-5-methoxybenzyl)-3-methyl-1H-1,2,4-triazol-5(4H)-one]"
16,250 to 2000,"CCc1cc(-n2nc(C)n(Cc3c(F)cccc3F)c2=O)ccc1-c1cn[nH]c1 [Example 116, 4-(2,6-difluorobenzyl)-1-(3-ethyl-4-(1H-pyrazol-4-yl)phenyl)-3-methyl-1H-1,2,4-triazol-5(4H)-one]"
17,5 to 50,"CCc1cc(-n2nc(C)n(Cc3ccccc3)c2=O)ccc1-c1cn[nH]c1 [Example 117, 4-benzyl-1-(3-ethyl-4-(1H-pyrazol-4-yl)phenyl)-3-methyl-1H-1,2,4-triazol-5(4H)-one]"
18,250 to 2000,"COc1cc(Cn2c(C)nn(-c3ccc(-c4cn[nH]c4)cc3)c2=O)cc(OC)c1 [Example 120, 1-(4-(1H-pyrazol-4-yl)phenyl)-4-(3,5-dimethoxybenzyl)-3-methyl-1H-1,2,4-triazol-5(4H)-one]"
19,< 5,"COc1cc(Cn2c(C)nn(-c3ccc(-c4cn[nH]c4)cc3)c2=O)ccc1F [Example 121, 1-(4-(1H-pyrazol-4-yl)phenyl)-4-(4-fluoro-3-methoxybenzyl)-3-methyl-1H-1,2,4-triazol-5(4H)-one]"

row,IC50 [nM],SMILES
1,250 to 2000,"COc1cccc(Cn2c(C)nn(-c3ccc(-c4cn[nH]c4)cc3)c2=O)c1F [Example 122, 1-(4-(1H-pyrazol-4-yl)phenyl)-4-(2-fluoro-3-methoxybenzyl)-3-methyl-1H-1,2,4-triazol-5(4H)-one]"
2,50 to 250,"COc1ccc(F)cc1Cn1c(C)nn(-c2ccc(-c3cn[nH]c3)cc2)c1=O [Example 123, 1-(4-(1H-pyrazol-4-yl)phenyl)-4-(5-fluoro-2-methoxybenzyl)-3-methyl-1H-1,2,4-triazol-5(4H)-one]"
3,250 to 2000,"COc1ccc(Cn2c(C)nn(-c3ccc(-c4cn[nH]c4)cc3)c2=O)cc1F [Example 124, 1-(4-(1H-pyrazol-4-yl)phenyl)-4-(3-fluoro-4-methoxybenzyl)-3-methyl-1H-1,2,4-triazol-5(4H)-one]"
4,< 5,"COc1cccc(Cn2c(CO)nn(-c3ccc(-c4cn[nH]c4)cc3)c2=O)c1 [Example 125, 1-(4-(1H-pyrazol-4-yl)phenyl)-3-(hydroxymethyl)-4-(3-methoxybenzyl)-1H-1,2,4-triazol-5(4H)-one]"
5,5 to 50,"O=c1n(-c2ccc(-c3cn[nH]c3)cc2)nc(CO)n1Cc1ccccc1 [Example 126, 1-(4-(1H-pyrazol-4-yl)phenyl)-4-benzyl-3-(hydroxymethyl)-1H-1,2,4-triazol-5(4H)-one]"
6,50 to 250,"COc1cc(Cn2c(CO)nn(-c3ccc(-c4cn[nH]c4)cc3)c2=O)cc(OC)c1 [Example 127, 1-(4-(1H-pyrazol-4-yl)phenyl)-4-(3,5-dimethoxybenzyl)-3-(hydroxymethyl)-1H-1,2,4-triazol-5(4H)-one]"
7,5 to 50,"O=c1n(-c2ccc(-c3cn[nH]c3)cc2)nc(CO)n1Cc1cccc(F)c1 [Example 128, 1-(4-(1H-pyrazol-4-yl)phenyl)-4-(3-fluorobenzyl)-3-(hydroxymethyl)-1H-1,2,4-triazol-5(4H)-one]"
8,5 to 50,"O=c1n(-c2ccc(-c3cn[nH]c3)cc2)nc(CO)n1Cc1cc(F)ccc1F [Example 129, 1-(4-(1H-pyrazol-4-yl)phenyl)-4-(2,5-difluorobenzyl)-3-(hydroxymethyl)-1H-1,2,4-triazol-5(4H)-one]"
9,5 to 50,"O=c1n(-c2ccc(-c3cn[nH]c3)cc2)nc(CO)n1Cc1cc(F)cc(F)c1 [Example 130, 1-(4-(1H-pyrazol-4-yl)phenyl)-4-(3,5-difluorobenzyl)-3-(hydroxymethyl)-1H-1,2,4-triazol-5(4H)-one]"
10,5 to 50,"O=c1n(-c2ccc(-c3cn[nH]c3)cc2)nc(CO)n1Cc1cccc(OC(F)F)c1 [Example 131, 1-(4-(1H-pyrazol-4-yl)phenyl)-4-(3-(difluoromethoxy)benzyl)-3-(hydroxymethyl)-1H-1,2,4-triazol-5(4H)-one]"
11,50 to 250,"N#Cc1cccc(Cn2c(CO)nn(-c3ccc(-c4cn[nH]c4)cc3)c2=O)c1 [Example 132, 3-((1-(4-(1H-pyrazol-4-yl)phenyl)-3-(hydroxymethyl)-5-oxo-1H-1,2,4-triazol-4(5H)-yl)methyl)benzonitrile]"
12,5 to 50,"CC(C)(O)c1nn(-c2ccc(-c3cn[nH]c3)cc2)c(=O)n1Cc1ccccc1 [Example 133, 1-(4-(1H-pyrazol-4-yl)phenyl)-4-benzyl-3-(2-hydroxypropan-2-yl)-1H-1,2,4-triazol-5(4H)-one]"
13,< 5,"COc1cccc(Cn2c(C(C)(C)O)nn(-c3ccc(-c4cn[nH]c4)cc3)c2=O)c1 [Example 134, 1-(4-(1H-pyrazol-4-yl)phenyl)-3-(2-hydroxypropan-2-yl)-4-(3-methoxybenzyl)-1H-1,2,4-triazol-5(4H)-one]"
14,5 to 50,"CC(C)(O)c1nn(-c2ccc(-c3cn[nH]c3)cc2)c(=O)n1Cc1cccc(F)c1 [Example 135, 1-(4-(1H-pyrazol-4-yl)phenyl)-4-(3-fluorobenzyl)-3-(2-hydroxypropan-2-yl)-1H-1,2,4-triazol-5(4H)-one]"
15,50 to 250,"CC(C)(O)c1nn(-c2ccc(-c3cn[nH]c3)cc2)c(=O)n1Cc1cc(F)ccc1F [Example 136, 1-(4-(1H-pyrazol-4-yl)phenyl)-4-(2,5-difluorobenzyl)-3-(2-hydroxypropan-2-yl)-1H-1,2,4-triazol-5(4H)-one]"
16,5 to 50,"CC(C)(O)c1nn(-c2ccc(-c3cn[nH]c3)cc2)c(=O)n1Cc1cc(F)cc(F)c1 [Example 137, 1-(4-(1H-pyrazol-4-yl)phenyl)-4-(3,5-difluorobenzyl)-3-(2-hydroxypropan-2-yl)-1H-1,2,4-triazol-5(4H)-one]"
17,50 to 250,"CC(C)(O)c1nn(-c2ccc(-c3cn[nH]c3)cc2)c(=O)n1Cc1c(F)cccc1F [Example 138, 1-(4-(1H-pyrazol-4-yl)phenyl)-4-(2,6-difluorobenzyl)-3-(2-hydroxypropan-2-yl)-1H-1,2,4-triazol-5(4H)-one]"
18,50 to 250,"CC(C)(O)c1nn(-c2ccc(-c3cn[nH]c3)cc2)c(=O)n1Cc1cccc(OC(F)F)c1 [Example 139, 1-(4-(1H-pyrazol-4-yl)phenyl)-4-(3-(difluoromethoxy)benzyl)-3-(2-hydroxypropan-2-yl)-1H-1,2,4-triazol-5(4H)-one]"
